The structures appear in SMILES notation.

Common to all, as to format: cell-based, mouse
For experiment [1], the system named is α7 integrin (LacZ reporter in α7βgal+/− myoblasts). The experiment can be described thus: Myoblast α7+/LacZ integrin FDG assay (Burkin assay in myoblasts, 96-well). Conditions: α7+/LacZ myoblasts, 96-well.
For experiment [2], the system named is α7 integrin (LacZ reporter in α7+/LacZ myotubes). The experiment can be described thus: Myotube α7 integrin FDG assay (Burkin assay in myotubes, 96-well). Conditions: myotubes.
Experiment [3] deals with β-galactosidase in CMV-LacZ C2C12 myotubes. In words: CMV-LacZ secondary screen in C2C12 myotubes (β-Gal stabilizing assay). To be noted: for CMV-LACZ in Myotubes, signal relative to DMSO: C2C12 CMV-LacZ myotubes, fold relative to DMSO; for CMV-LACZ in Myotubes (β-galactosidase activity relative to DMSO): CMV-LacZ C2C12 myotubes, 96-well format. The essentials: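 Stable CMV-LacZ C2C12 clone; six-point curve 0.5–40 μM; duplicates.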

As for `Cc1ccc(NC(=O)COc2ccccc2CNC(C)(C)CC(C)(C)C)cc1` [MLS000538580-01], the “Burkin Assay in Myoblasts, signal relative to DMSO” value in experiment [1] (0.5 uM) is 0.9645; in experiment [1] (1 uM), 0.9097; in experiment [1] (5 uM), 0.8691; in experiment [1] (10 uM), 0.5306; in experiment [1] (20 uM), 0.03863; in experiment [1] (40 uM), 0.02896. The “Burkin Assay in Myotubes, α7 integrin LacZ reporter signal relative to DMSO” value is recorded as 1.087 in experiment [2] (0.5 uM); 1.025 in experiment [2] (1 uM); 0.8641 in experiment [2] (5 uM); 0.4774 in experiment [2] (10 uM); 0.928 in experiment [2] (20 uM); 0.1825 in experiment [2] (40 uM). Also, the “CMV-LACZ in Myotubes, signal relative to DMSO” value is given as 0.6613 in experiment [3] (5 uM), 0.5729 in experiment [3] (10 uM), 0.3838 in experiment [3] (20 uM) and 0.2705 in experiment [3] (40 uM).
For `Cc1ccc(S(=O)(=O)NC(C)C(=O)NC(C)c2cccs2)cc1` (centres unmarked) [MLS001221867-01], the “Burkin Assay in Myoblasts, signal relative to DMSO” value in experiment [1] (0.5 uM) was 1.001; in experiment [1] (1 uM) it was 1.024; in experiment [1] (5 uM), 0.9275; in experiment [1] (10 uM) it was 0.922; in experiment [1] (20 uM), 0.9616; in experiment [1] (40 uM), 0.8943. Besides, the “Burkin Assay in Myotubes, α7 integrin LacZ reporter signal relative to DMSO” value in experiment [2] (0.5 uM) is 0.9728; in experiment [2] (1 uM) it was 0.9422; in experiment [2] (5 uM), 0.9593; in experiment [2] (10 uM) it was 0.9374; in experiment [2] (20 uM), 1.02; in experiment [2] (40 uM) it was 0.9915. Further, the “CMV-LACZ in Myotubes, signal relative to DMSO” value in experiment [3] (5 uM) turned out to be 0.9954; in experiment [3] (10 uM), 0.9834; in experiment [3] (20 uM), 1.0515; in experiment [3] (40 uM), 1.0745.
Regarding `COc1ccc(C(=O)N/C(=C/c2cccnc2)C(=O)N2CCN(C)CC2)cc1OC` [MLS001140657-01], the “Burkin Assay in Myoblasts, value relative to DMSO” value turned out to be 0.9918 in experiment [1] (0.5 uM); 0.962 in experiment [1] (1 uM); 0.9528 in experiment [1] (5 uM); 0.8768 in experiment [1] (10 uM); 0.8568 in experiment [1] (20 uM); 0.7978 in experiment [1] (40 uM). The “Burkin Assay in Myotubes (signal relative to DMSO)” value came out at 1.034 in experiment [2] (0.5 uM); 0.9506 in experiment [2] (1 uM); 1.083 in experiment [2] (5 uM); 0.9981 in experiment [2] (10 uM); 0.9948 in experiment [2] (20 uM); 0.9708 in experiment [2] (40 uM). Further, the “CMV-LACZ in Myotubes (β-galactosidase activity relative to DMSO)” value in experiment [3] (5 uM) was found to be 1.053; in experiment [3] (10 uM), 1.046; in experiment [3] (20 uM), 1.05; in experiment [3] (40 uM) it was 1.075.
As to `CCNC(=O)CSc1nc(-c2ccc(F)cc2)cs1` [MLS000772194-01], the “Burkin Assay in Myoblasts, value relative to DMSO” value in experiment [1] (0.5 uM) is recorded as 1.096; in experiment [1] (1 uM), 1.059; in experiment [1] (5 uM) it was 1.055; in experiment [1] (10 uM), 1.082; in experiment [1] (20 uM) it was 1.098; in experiment [1] (40 uM), 1.149. Also, the “Burkin Assay in Myotubes (signal relative to DMSO)” value is recorded as 0.9782 in experiment [2] (0.5 uM); 0.9192 in experiment [2] (1 uM); 0.9654 in experiment [2] (5 uM); 1.072 in experiment [2] (10 uM); 0.9904 in experiment [2] (20 uM); 0.7651 in experiment [2] (40 uM). Besides, the “CMV-LACZ in Myotubes, signal relative to DMSO” value was determined as 1.068 in experiment [3] (5 uM), 0.9234 in experiment [3] (10 uM), 1.056 in experiment [3] (20 uM) and 0.9968 in experiment [3] (40 uM).
Take `CC1CCCCN1c1ncnc(N)c1[N+](=O)[O-]` (centres unmarked) [MLS000683234-01]: the “Burkin Assay in Myoblasts, signal relative to DMSO” value in experiment [1] (0.5 uM) came out at 1.187; in experiment [1] (1 uM) it was 0.8341; in experiment [1] (5 uM) it was 1.134; in experiment [1] (10 uM), 1.152; in experiment [1] (20 uM) it was 1.067; in experiment [1] (40 uM) it was 1.21. Besides, the “Burkin Assay in Myotubes, α7 integrin LacZ reporter signal relative to DMSO” value is recorded as 0.9165 in experiment [2] (0.5 uM); 1.053 in experiment [2] (1 uM); 1.091 in experiment [2] (5 uM); 1.273 in experiment [2] (10 uM); 1.414 in experiment [2] (20 uM); 1.631 in experiment [2] (40 uM). Besides, the “CMV-LACZ in Myotubes, signal relative to DMSO” value in experiment [3] (5 uM) was determined as 0.8204; in experiment [3] (10 uM), 0.8111; in experiment [3] (20 uM), 0.6952; in experiment [3] (40 uM), 0.93.
On to `Cc1cc(-c2ccccc2)n2nc(N)nc2n1` [MLS000122180-01], for which the “Burkin Assay in Myoblasts, value relative to DMSO” value in experiment [1] (0.5 uM) was determined as 0.8023; in experiment [1] (1 uM), 0.8424; in experiment [1] (5 uM), 0.9726; in experiment [1] (10 uM) it was 0.9665; in experiment [1] (20 uM), 1.004; in experiment [1] (40 uM), 0.9116. In addition, the “Burkin Assay in Myotubes (signal relative to DMSO)” value in experiment [2] (0.5 uM) is 1.006; in experiment [2] (1 uM), 0.9341; in experiment [2] (5 uM), 1.027; in experiment [2] (10 uM), 0.7456; in experiment [2] (20 uM), 0.9557; in experiment [2] (40 uM) it was 0.9496. Besides, the “CMV-LACZ in Myotubes, signal relative to DMSO” value in experiment [3] (5 uM) is on record as 0.7773; in experiment [3] (10 uM), 0.8808; in experiment [3] (20 uM) it was 0.8136; in experiment [3] (40 uM), 1.007.
Turning to `COCCN(CC(=O)Nc1cccc(C)c1C)C(=O)C1CCN(S(=O)(=O)c2ccccc2)CC1` [MLS002156278-01], the “Burkin Assay in Myoblasts, value relative to DMSO” value in experiment [1] (0.5 uM) amounted to 0.8597; in experiment [1] (1 uM) it was 0.9642; in experiment [1] (5 uM), 1.01; in experiment [1] (10 uM) it was 0.9653; in experiment [1] (20 uM), 0.8604; in experiment [1] (40 uM), 0.8246. In addition, the “Burkin Assay in Myotubes (signal relative to DMSO)” value amounted to 1.005 in experiment [2] (0.5 uM); 0.9637 in experiment [2] (1 uM); 0.6908 in experiment [2] (5 uM); 0.9924 in experiment [2] (10 uM); 0.9719 in experiment [2] (20 uM); 1.025 in experiment [2] (40 uM). Besides, the “CMV-LACZ in Myotubes (β-galactosidase activity relative to DMSO)” value came to 0.8694 in experiment [3] (5 uM), 1.096 in experiment [3] (10 uM), 0.9667 in experiment [3] (20 uM) and 1.031 in experiment [3] (40 uM).
Consider `COc1ccccc1-c1coc2c(CN3C(C)CCCC3C)c(O)ccc2c1=O` (centres unmarked) [MLS001163140-01], for which the “Burkin Assay in Myoblasts, value relative to DMSO” value in experiment [1] (0.5 uM) amounted to 1.019; in experiment [1] (1 uM), 1.217; in experiment [1] (5 uM), 0.9966; in experiment [1] (10 uM) it was 1.098; in experiment [1] (20 uM), 0.935; in experiment [1] (40 uM), 0.9829. The “Burkin Assay in Myotubes (signal relative to DMSO)” value in experiment [2] (0.5 uM) was determined as 0.9236; in experiment [2] (1 uM), 1.035; in experiment [2] (5 uM) it was 0.9282; in experiment [2] (10 uM), 1.1264; in experiment [2] (20 uM), 0.9651; in experiment [2] (40 uM) it was 1.011. The “CMV-LACZ in Myotubes, signal relative to DMSO” value in experiment [3] (5 uM) came out at 1.029; in experiment [3] (10 uM) it was 1.061; in experiment [3] (20 uM), 0.9159; in experiment [3] (40 uM) it was 1.19.

For the origin of these results see patent US9980943B2, “Methods of treating muscular dystrophy” (BOARD OF REGENTS OF THE NEVADA SYSTEM OF HIGHER EDUCATION, …, priority 2013, dated 2018).
